Test results reported in ChEMBL document CHEMBL5465560, “Selectivity Literature for EUbOPEN Chemogenomic Library” (2024).

Assays:
[1] = biological target: MAP kinase-interacting serine/threonine-protein kinase 1 (Homo sapiens) (UniProt Q9BUB5); experiment: Selectivity interaction (KinomeScan (DiscoverX)) EUB0000666a MKNK1; conditions: at 10 µM
[2] = biological target: T1, Phosphatidylinositol 3-kinase C2 domain-containing subunit gamma (Homo sapiens) (UniProt O75747); experiment: Selectivity interaction (KinomeScan (DiscoverX)) EUB0000229b PIK3C2G; conditions: at 10 µM
T1 sequence (whole entry): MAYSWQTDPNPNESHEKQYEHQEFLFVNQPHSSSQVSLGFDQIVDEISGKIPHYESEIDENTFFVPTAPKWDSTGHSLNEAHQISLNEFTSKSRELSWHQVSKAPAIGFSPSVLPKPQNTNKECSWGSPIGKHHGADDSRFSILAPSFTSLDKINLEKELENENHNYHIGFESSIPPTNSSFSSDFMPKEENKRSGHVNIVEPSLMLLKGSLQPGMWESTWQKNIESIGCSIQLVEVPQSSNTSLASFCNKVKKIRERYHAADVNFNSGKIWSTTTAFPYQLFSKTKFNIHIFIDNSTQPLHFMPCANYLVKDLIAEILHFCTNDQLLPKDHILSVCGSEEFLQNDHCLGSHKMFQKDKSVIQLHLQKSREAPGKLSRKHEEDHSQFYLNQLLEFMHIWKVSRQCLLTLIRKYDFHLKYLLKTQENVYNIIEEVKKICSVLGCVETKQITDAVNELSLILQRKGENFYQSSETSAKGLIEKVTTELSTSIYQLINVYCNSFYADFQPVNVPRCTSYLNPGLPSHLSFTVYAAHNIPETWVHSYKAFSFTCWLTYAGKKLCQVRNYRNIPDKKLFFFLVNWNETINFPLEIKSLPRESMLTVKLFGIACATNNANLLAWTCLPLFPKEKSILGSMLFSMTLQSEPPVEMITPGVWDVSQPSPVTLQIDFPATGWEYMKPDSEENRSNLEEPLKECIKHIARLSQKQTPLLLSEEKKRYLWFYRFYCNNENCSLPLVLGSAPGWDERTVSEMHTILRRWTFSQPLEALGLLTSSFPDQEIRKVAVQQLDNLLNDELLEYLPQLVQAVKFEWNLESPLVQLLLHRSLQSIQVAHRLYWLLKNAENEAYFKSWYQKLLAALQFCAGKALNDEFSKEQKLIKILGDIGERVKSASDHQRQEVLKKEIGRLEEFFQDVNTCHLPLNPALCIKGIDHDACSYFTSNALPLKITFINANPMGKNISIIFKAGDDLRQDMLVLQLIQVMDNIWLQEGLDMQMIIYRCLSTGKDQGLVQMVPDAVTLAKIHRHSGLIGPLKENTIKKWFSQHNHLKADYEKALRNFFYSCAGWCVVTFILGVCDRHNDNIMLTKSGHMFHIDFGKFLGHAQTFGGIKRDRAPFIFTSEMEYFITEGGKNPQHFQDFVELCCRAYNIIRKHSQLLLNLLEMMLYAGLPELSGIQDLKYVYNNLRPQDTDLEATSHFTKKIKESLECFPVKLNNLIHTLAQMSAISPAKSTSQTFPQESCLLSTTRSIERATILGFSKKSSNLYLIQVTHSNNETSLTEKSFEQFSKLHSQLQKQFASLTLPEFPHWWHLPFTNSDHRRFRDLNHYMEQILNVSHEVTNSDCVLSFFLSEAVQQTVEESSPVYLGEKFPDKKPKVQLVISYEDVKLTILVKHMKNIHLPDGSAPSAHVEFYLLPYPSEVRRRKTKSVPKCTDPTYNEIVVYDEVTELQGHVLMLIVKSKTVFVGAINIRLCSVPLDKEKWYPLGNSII

[3] = biological target: Glutamate receptor ionotropic, NMDA 1 (Homo sapiens) (UniProt Q05586); experiment: Selectivity interaction (Eurofins CEREP Diversity Profile (receptors and ion channels)) EUB0000279b GRIN1; conditions: at 10 µM
[4] = biological target: Delta-type opioid receptor (Homo sapiens, UniProt P41143); experiment: Selectivity interaction (GPCR panel (PDSP screen)) EUB0001079a OPRD1; conditions: at 10 µM
[5] = biological target: Receptor-type tyrosine-protein kinase FLT3 (Homo sapiens) (UniProt P36888); experiment: Selectivity interaction (Upstate Kinase Profiler service (Millipore)) EUB0000056c FLT3; conditions: at 1 µM
[6] = biological target: Microtubule-associated serine/threonine-protein kinase 1 (Homo sapiens) (UniProt Q9Y2H9); experiment: Selectivity interaction (KinomeScan (DiscoverX)) EUB0000607a MAST1; conditions: at 10 µM
[7] = biological target: T2, Serine/threonine-protein kinase 17A (Homo sapiens) (UniProt Q9UEE5); experiment: Selectivity interaction (LanthaScreen Eu Kinase Binding Assay) EUB0001632a STK17A; conditions: at 10 µM
T2 sequence (whole entry): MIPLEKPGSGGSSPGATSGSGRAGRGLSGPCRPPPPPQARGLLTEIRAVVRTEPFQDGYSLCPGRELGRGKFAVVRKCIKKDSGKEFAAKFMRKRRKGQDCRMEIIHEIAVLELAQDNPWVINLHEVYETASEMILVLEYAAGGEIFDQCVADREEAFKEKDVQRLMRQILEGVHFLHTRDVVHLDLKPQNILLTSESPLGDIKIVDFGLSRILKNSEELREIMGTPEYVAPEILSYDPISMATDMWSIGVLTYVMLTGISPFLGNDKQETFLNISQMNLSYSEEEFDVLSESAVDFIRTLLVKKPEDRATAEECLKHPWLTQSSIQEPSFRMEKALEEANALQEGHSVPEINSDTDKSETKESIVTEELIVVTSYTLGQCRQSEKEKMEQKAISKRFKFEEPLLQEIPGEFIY

[8] = biological target: T3, Muscarinic acetylcholine receptor M2 (Homo sapiens) (UniProt P08172); experiment: Selectivity interaction (Panel of non-epigenetic targets (kinases, GPCRs, ion channels, and transporters, Eurofins) ) EUB0000271b CHRM2; conditions: at 1 µM
T3 sequence (whole entry): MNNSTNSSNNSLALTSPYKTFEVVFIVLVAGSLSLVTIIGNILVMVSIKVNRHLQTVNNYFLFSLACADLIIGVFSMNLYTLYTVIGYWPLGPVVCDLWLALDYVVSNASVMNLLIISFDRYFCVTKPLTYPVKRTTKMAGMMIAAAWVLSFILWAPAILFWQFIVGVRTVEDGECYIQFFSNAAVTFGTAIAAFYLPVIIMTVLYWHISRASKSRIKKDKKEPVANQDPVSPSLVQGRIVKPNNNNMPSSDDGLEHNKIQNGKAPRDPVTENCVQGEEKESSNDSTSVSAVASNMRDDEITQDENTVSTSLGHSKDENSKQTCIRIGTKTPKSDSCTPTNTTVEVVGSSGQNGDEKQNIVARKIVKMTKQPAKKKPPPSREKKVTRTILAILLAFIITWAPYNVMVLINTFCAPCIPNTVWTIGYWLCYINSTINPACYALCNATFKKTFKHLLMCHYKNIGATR

Delta-type opioid receptor, sequence (P41143 whole entry): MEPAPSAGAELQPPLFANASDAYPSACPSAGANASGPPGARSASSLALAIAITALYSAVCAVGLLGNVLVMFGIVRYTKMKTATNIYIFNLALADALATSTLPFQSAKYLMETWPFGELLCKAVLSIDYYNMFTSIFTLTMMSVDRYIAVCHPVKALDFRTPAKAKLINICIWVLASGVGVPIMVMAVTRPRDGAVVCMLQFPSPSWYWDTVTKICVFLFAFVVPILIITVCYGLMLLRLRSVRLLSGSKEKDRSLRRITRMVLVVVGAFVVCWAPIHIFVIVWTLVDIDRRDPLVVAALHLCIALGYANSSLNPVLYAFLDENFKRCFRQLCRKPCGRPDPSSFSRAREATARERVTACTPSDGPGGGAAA
MAP kinase-interacting serine/threonine-protein kinase 1 (Homo sapiens), sequence (Q9BUB5 whole entry, looked up, the tested form may be a part): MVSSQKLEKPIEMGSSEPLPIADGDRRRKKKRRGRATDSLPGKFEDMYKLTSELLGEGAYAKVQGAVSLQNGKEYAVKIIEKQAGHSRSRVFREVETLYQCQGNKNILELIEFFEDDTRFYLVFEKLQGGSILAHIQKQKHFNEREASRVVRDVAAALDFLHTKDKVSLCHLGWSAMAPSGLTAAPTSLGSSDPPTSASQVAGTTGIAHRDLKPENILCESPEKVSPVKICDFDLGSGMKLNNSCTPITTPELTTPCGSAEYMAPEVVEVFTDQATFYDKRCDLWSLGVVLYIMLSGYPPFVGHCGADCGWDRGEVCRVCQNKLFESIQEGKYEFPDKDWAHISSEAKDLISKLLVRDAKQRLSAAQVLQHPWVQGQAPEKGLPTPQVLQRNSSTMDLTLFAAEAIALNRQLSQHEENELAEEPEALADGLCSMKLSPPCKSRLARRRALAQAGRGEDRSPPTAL
Microtubule-associated serine/threonine-protein kinase 1 (Homo sapiens), sequence (Q9Y2H9 whole entry, looked up): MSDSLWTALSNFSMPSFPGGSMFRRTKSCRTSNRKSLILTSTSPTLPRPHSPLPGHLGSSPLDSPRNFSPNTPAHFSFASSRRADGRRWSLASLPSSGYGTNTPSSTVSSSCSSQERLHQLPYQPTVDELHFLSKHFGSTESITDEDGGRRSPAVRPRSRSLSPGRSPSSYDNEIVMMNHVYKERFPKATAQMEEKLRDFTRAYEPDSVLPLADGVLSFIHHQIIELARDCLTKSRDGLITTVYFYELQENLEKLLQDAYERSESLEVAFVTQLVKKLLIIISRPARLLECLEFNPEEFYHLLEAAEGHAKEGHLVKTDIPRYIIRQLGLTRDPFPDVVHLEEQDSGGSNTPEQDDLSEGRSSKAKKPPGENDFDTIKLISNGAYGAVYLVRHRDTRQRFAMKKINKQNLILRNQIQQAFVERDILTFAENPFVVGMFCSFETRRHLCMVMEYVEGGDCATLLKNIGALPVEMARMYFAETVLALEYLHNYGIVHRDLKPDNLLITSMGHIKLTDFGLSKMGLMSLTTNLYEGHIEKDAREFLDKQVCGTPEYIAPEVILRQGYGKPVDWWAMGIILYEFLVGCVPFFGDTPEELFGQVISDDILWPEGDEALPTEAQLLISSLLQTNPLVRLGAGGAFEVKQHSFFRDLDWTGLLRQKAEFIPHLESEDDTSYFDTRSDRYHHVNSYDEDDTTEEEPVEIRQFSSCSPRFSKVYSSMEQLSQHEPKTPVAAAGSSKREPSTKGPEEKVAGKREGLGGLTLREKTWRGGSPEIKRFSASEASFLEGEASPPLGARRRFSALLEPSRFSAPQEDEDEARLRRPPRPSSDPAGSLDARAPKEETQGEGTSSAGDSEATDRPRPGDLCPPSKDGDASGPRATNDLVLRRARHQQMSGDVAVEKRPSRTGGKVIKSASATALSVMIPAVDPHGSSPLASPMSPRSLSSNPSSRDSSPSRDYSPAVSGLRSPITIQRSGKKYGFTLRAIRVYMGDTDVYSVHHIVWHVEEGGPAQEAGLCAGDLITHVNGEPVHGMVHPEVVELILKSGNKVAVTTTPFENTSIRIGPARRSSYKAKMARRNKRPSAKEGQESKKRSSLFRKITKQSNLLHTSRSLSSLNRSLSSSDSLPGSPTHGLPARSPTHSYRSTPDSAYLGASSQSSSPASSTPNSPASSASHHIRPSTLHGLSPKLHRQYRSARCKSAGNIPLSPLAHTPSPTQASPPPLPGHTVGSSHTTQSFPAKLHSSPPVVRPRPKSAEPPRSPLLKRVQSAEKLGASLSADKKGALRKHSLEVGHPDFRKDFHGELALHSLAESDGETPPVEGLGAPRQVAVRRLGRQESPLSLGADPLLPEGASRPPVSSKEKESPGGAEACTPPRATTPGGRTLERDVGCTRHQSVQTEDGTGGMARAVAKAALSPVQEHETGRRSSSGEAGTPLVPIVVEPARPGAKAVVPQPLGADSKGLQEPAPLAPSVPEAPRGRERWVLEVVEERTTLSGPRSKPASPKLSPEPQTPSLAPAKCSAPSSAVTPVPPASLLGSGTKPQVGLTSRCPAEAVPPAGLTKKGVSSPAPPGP
Receptor-type tyrosine-protein kinase FLT3 (Homo sapiens), sequence (P36888 whole entry): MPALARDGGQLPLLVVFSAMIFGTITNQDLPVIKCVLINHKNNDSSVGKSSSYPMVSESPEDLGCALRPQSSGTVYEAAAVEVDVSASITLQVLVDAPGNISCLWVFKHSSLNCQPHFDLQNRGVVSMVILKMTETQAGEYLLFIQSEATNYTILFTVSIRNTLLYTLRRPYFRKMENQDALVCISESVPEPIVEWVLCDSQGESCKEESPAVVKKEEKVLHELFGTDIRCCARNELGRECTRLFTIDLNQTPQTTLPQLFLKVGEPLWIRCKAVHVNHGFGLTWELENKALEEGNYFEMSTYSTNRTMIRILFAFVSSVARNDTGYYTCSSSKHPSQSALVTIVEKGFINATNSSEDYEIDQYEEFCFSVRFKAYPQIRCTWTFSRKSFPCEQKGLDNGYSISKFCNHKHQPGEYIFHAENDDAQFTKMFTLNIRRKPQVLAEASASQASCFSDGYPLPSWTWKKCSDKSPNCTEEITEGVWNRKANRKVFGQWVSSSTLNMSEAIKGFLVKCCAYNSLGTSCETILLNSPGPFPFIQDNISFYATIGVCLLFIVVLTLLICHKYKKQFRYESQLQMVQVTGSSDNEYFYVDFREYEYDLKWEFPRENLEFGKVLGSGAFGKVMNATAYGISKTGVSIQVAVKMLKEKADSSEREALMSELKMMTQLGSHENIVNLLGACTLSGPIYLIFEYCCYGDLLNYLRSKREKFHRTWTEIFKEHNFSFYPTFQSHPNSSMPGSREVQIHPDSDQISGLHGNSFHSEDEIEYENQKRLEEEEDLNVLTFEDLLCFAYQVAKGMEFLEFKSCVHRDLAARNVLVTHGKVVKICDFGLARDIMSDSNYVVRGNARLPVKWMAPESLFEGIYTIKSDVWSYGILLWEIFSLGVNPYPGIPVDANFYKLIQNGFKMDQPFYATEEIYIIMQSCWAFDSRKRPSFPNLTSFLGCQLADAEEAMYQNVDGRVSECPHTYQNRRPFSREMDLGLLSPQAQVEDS

Work on O=C(NOC[C@H](O)CO)c1ccc(F)c(F)c1Nc1ccc(I)cc1F yielded a % of control [1] of 100%.
In the case of COc1cc(N(C)c2ccnc3ccc(C(F)(F)F)cc23)cc(OC)c1OC, the % binding [2] is reported as 75%.
Work on CC(=O)c1cc(-c2ccccc2OCC2CC2)c2ncccn12 yielded a % of control [3] of 106%.
For Nc1cnc(N2CCc3cc(S(=O)(=O)Nc4c(F)cc(Cl)cc4F)cc(N4CCCC4=O)c32)nc1 [TP-020n], the % of inhibition [4] was -1.24%.
Work on Cc1ccc(-c2ccc3c(ccc4sc5c(c43)NC[C@@H](C)NC5=O)n2)cn1 yielded a % of inhibition [5] of -11%.
In the case of CNC(=O)Nc1ccc(-c2nc(N3CC4CCC(C3)O4)c3cnn(C4CCC5(CC4)OCCO5)c3n2)cc1, the % of control [6] is reported as 95%.
Work on Cn1cc(-n2cnc3c(NCc4nc5cc(Cl)c(Cl)cc5[nH]4)nc(N4CCOCC4)nc32)cn1 yielded a % of inhibition [7] of -13.2%.
Cc1cc(C)cc([C@@H]2c3cc(C)ccc3NC(=O)CN2C(=O)c2ccc(Br)s2)c1 was tested, and the % of inhibition [8] was -5%.
